Reference: ChEMBL document CHEMBL1157437, “Synthesis and biological activities of reveromycin A and spirofungin A derivatives” (Bioorg Med Chem Lett, 2008)
Values after ≈ are worked out from the molar mass of the structure shown.

Key:
NRK [1] = test: Effect on morphological reversion in src transformed NRK cells at 3 ug/mL; format: functional; conditions: Rattus norvegicus
NRK [2] = test: Effect on morphological reversion in src transformed NRK cells at 10 ug/mL; format: functional; conditions: Rattus norvegicus
NRK [3] = test: Toxicity against src transformed NRK cells at 100 ug/mL; format: cell-based; conditions: rat
Osteoclast = test: Induction of apoptosis in mouse osteoclasts; format: functional
[4] = molecular target: T1, Isoleucine--tRNA ligase, cytoplasmic (Homo sapiens, UniProt P41252); test: Inhibition of IleRS
T1 sequence (P41252 whole entry): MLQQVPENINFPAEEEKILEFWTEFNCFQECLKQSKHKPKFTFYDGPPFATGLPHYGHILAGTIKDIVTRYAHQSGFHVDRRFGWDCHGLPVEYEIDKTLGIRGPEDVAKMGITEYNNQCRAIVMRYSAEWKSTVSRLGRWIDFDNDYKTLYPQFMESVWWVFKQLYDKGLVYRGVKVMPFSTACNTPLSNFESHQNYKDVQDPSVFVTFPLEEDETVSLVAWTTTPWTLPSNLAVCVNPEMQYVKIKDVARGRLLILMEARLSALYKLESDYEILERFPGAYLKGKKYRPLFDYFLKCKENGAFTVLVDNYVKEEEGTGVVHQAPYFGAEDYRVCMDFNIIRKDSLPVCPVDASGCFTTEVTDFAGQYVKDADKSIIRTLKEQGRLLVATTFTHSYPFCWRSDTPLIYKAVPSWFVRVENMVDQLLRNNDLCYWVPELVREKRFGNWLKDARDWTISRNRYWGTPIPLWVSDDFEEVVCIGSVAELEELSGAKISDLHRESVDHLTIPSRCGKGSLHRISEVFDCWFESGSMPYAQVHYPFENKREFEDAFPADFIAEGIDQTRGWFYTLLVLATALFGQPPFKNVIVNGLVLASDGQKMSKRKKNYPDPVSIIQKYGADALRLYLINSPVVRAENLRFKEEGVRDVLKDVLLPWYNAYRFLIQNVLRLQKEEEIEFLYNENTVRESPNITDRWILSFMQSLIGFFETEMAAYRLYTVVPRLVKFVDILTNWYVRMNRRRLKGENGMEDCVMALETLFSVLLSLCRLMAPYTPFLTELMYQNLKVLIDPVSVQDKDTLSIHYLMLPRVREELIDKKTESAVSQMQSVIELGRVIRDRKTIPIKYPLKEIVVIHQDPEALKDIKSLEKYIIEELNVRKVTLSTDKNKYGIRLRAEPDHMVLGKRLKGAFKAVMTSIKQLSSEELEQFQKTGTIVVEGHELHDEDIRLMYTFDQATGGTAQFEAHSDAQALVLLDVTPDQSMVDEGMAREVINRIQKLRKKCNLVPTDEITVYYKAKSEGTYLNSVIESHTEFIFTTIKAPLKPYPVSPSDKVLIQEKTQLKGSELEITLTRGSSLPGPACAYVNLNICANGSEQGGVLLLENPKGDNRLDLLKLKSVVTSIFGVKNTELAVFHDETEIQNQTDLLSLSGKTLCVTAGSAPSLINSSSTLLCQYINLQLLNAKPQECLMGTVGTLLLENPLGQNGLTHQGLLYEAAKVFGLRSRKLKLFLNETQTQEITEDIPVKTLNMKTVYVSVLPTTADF

NRK [5] = test: Effect on morphological reversion in src transformed NRK cells at 30 ug/mL; format: functional; conditions: Rattus norvegicus
NRK [6] = test: Effect on morphological reversion in src transformed NRK cells at 100 ug/mL; format: functional; conditions: Rattus norvegicus
NRK [7] = test: […] morphological reversion in src transformed NRK cells; format: functional, cell-based; conditions: Rattus norvegicus
NRK [8] = test: Effect on morphological reversion in src transformed NRK cells at 0.3 ug/mL; format: functional; conditions: Rattus norvegicus
NRK [9] = test: Effect on morphological reversion in src transformed NRK cells at 1 ug/mL; format: functional; conditions: Rattus norvegicus

| Structure (SMILES) | inhibition at 3 µg/mL (NRK [1]) [%] | inhibition at 10 µg/mL (NRK [2]) [%] | Activity (NRK [3]) | Activity (Osteoclast) [µg/mL] | IC50 [4] [nM] | inhibition at 30 µg/mL (NRK [5]) [%] | inhibition at 100 µg/mL (NRK [6]) [%] | EC50 (NRK [7]) [µg/mL] | inhibition at 0.3 µg/mL (NRK [8]) [%] | inhibition at 1 µg/mL (NRK [9]) [%] |
| --- | --- | --- | --- | --- | --- | --- | --- | --- | --- | --- |
| CC(/C=C/[C@H](OC(=O)CCC(=O)O)[C@@H](C)/C=C/C(=O)O)=C\C[C@H]1O[C@@]2(CC[C@H](C)[C@H](/C=C/C(C)=C/C(=O)O)O2)CC[C@@H]1C | < 10 | < 10 | Toxic | 12.4 | > 1660 | < 10 | – | – | – | – |
| CCCC[C@@]1(OC(=O)CCC(=O)O)CC[C@]2(CC[C@H](C)[C@@H](C/C=C(C)/C=C/[C@H](O)[C@@H](C)/C=C/C(=O)O)O2)O[C@H]1/C=C/C(C)=C/C(=O)O [REVEROMYCIN A] | 20 | 50 | – | 0.06 | 4.46 | > 80 | > 80 | 1.58 (≈ 2.39 µM) | < 10 | 10 |
